The subject of one data set is T cells. Kind of data set: Multiplex cytokine array, activated T cell supernatant. Type of data set: cell-based, human. The conditions noted are these: 48 h drug, then T cell activator with drug 2 more days. As for the experimental part:
(§1) Human peripheral blood mononuclear cells (PBMC) and purified T cells from healthy donors were purchased from […] Technologies (CA). Cells (7.5×10^6/ml) were cultured in the RPMI supplementing with 10% heat-inactivated fetal bovine serum (vWR), 1% penicillin/streptomycin (SigmaMillipore), 1% sodium pyruvate, and 1% non-essential amino acids (Gibco) in 24 well plates in the presence of 100 IU/ml interleukin 2 ([…] Technologies or HIV reagent program (managed by ATCC).
(§2) Then, cells were induced with T cell activator ([…]) in the presence of the drugs for 2 more days. After 4 days, the viability of treated T cells was analyzed using Flow cytometry. The supernatants for both PBMC and T cells were collected for further analysis.
The collected supernatants were analyzed for various biomarkers using multiplex cytokine array (Eve Technologies Discovery assay, Calgary, CA) either human cytokine/chemokine 71-Plex (HD71) for PBMC or human proinflammatory focused 15-Plex (HDF15) for T cells samples.

Data set [1] in a line: T cell viability by flow cytometry. Type of data set: cell-based. The conditions noted are these: human; for viability at 4 days, 20 nM: Drug 20 nM; for viability at 4 days, 100 nM: Drug 100 nM; for viability at 4 days, 500 nM: Drug 500 nM. The protocol: as §1, §2
For orientation: Flow cytometry measures light scatter and fluorescence of single cells or particles in a stream.

Data set [2] deals with Src and Lyn SFK protein levels. Kind of data set: SFK protein levels (Western blot). The format is cell-based. The note with it: BL2 cells treated with PCLX-001, 10 μM MG132 for the last 6 hrs. The protocol: Cells were harvested, washed in cold PBS, and lysed in […] SDS-RIPA buffer (50 mM Tris-HCl pH 8.0, 150 mM NaCl, 1% Igepal CA-630, 0.5% sodium deoxycholate, 2 mM MgCL2, 2 mM EDTA with 1×complete protease inhibitor; (Roche Diagnostics) by rocking for 15 min at 4° C. The lysates were centrifuged at 16,000 g for 10 min at 4° C., and the post-nuclear supernatant was collected.
Protein concentrations were determined by BCA assay (Thermo Scientific) according to manufacturer's instructions. Samples were prepared for electrophoresis by the addition of 5× loading buffer and boiled for 5 min. If not stated otherwise, […] of total protein per lane is loaded on a 12.5% acrylamide gels. After electrophoresis, gels are transferred onto […] nitrocellulose membrane (Bio-Rad) thereafter probed with antibodies as described in materials section.

The conditions of data set [3]: Mouse IV; cited from earlier work.
The test system of data set [4] is BCR signaling in BL2 cells. Kind of data set: BCR signaling after anti-IgM in BL2 cells (Western blot). Type of data set: cell-based. The conditions noted are these: 0.1 or 1.0 μM, 48 hrs. As for the experimental part: IM9, Ramos, SU-DHL-10 and COS-7 were purchased from ATCC. BL2, DOHH2, WSU-DLCL2 & BJAB were purchased from DSMZ (Germany). Ramos and BL2 were kind gifts of Drs. Jim Stone and Robert […] of University of Alberta. VDS isolation was described in Tosato G, et al. (reference 47). VDS, BJAB and SU-DHL-10 were kind gifts of Dr. Michael Gold of the University of British Columbia. HUVEC cells (pooled from up to 4 umbilical cords) were purchased from PromoCell. […] Cell lines were tested regularly for mycoplasma contamination using MycoAlert Plus Mycoplasma Detection Kit (Lonza, ME, USA). All cell lines tested negative for mycoplasma contamination. […] Please see supplementary Table 3 for cell line names, types and histology. For transfections, adherent cells COS-7 cells were transfected using X-tremeGENE9 DNA (Roche) transfection reagent according to manufacturer's instructions. For BCR activation experiments, cells were incubated with 25 μg/ml of Goat F(ab')2 anti-human IgM (or anti-human IgM (μ chain) showing identical BCR activation properties) for 2 minutes and the activation was stopped by the addition of 1 mM vanadate (Bio Basic Inc) solution in PBS. Protein concentrations were determined by BCA assay (Thermo Scientific) according to manufacturer's instructions. Samples were prepared for electrophoresis by the addition of 5× loading buffer and boiled for 5 min. […]
A general note: A western blot detects proteins with antibodies after separation by electrophoresis.

Data set [5] is described as follows: Toxicology in DLBCL3 patient derived xenograft mice. The format is in vivo, mouse. The conditions noted are these: within the first 7 days. The protocol:
(§3) The dose volume was 10 mL/kg.

Data set [6] can be described thus: Toxicology in DOHH2 xenograft mice. The note with it: DOHH2 xenograft; Doxorubicin 3 mg/kg Once a week; normal [5-20].
Experimental: (§4) Mice were observed daily for clinical signs of toxicity and effects on body weight. After the last dose, three mice/group were euthanized and necropsied. At euthanasia, blood samples were taken for hematology analyses and to measure AST and CK activities and bilirubin and creatinine concentrations. At necropsy, samples of samples of femur, both kidneys, liver, small intestine, and injection site were taken and fixed.
(§5) The dose volume was 10 mL/kg. At the end of the two-to three-week dosing period, mice were euthanized and three/group were necropsied. Mice that died or were euthanized early for humane reasons also were necropsied. In life, mice were monitored regularly and weighed daily, and tumors were measured with digital Vernier calipers (Mitutoyo) every other day. Tumor volume was calculated as length (mm)×width (mm)2/2; length and width were the longest and shortest diameters, respectively. At euthanasia, at the end of the dosing period blood samples were taken for hematology analyses and clinical chemistry analyses that included AST and CK activities and bilirubin and creatinine concentrations (plus ALT activity and BUN concentration in the Jackson Laboratory study). At necropsy, samples of femur, both kidneys, liver, small intestine, and injection site were collected and fixed. These were subsequently processed and examined by light microscopy for histopathologic findings. Also at necropsy, the tumors were removed and divided in two. One piece was fixed in 10% neutral buffered formalin for 24 h at room temperature and embedded in paraffin; the other was snap frozen for RNA and protein analysis. Tumor growth inhibition (TGI) for all xenograft experiments was calculated following the formula:
For data set [7] the following is noted: mouse, in vivo. The protocol:
Data collected were the same as in the Charles River xenograft study—clinical signs, body weight, tumor volume, blood samples from 3 mice/group for hematology and clinical chemistry (ALT, AST, BUN, creatinine, CK), and tissue samples collected and fixed from the same 3 mice. Liver, kidneys, and small intestine also were weighed.
as §3

The conditions of data set [8]: mouse, in vivo. The source holds these as a separate data set.
Experimental: as §4, §5
In the next data set the test system is BL2 xenografts. Kind of data set: BL2 xenograft, tumor growth. The format is in vivo, mouse. The conditions noted are these: doxorubicin.
Text: BL2 xenograft study at Jackson Laboratory: One hundred five (105) 6 week old female NOD.CB17-Prkdc scid/J (NOD scid, Stock #001303) mice were transferred to the in vivo research laboratory in Sacramento, CA. The mice were ear notched for identification and housed in individually and positively ventilated polysulfone cages with HEPA filtered air at a density of 5 mice per cage. Initially cages were changed every two weeks. The animal room was lighted entirely with artificial fluorescent lighting, with a controlled 12 hour light/dark cycle (6 am to 6 pm light). The normal temperature and relative humidity ranges in the animal rooms were 20-26° C. and 30-70%, respectively. The animal rooms were set to have up to 15 air exchanges per hour. Filtered tap water, acidified to a pH of 2.5 to 3.0, and standard lab chow were provided ad libitum.
as §3
TGI (%)=(Vcontrol−Vtreated)/(Vcontrol−Vnitial)*100.

For another data set, the system named is DOHH2 tumors. The experiment in a line: DOHH2 xenograft, tumor growth. Type of data set: in vivo, mouse. The note with it: doxorubicin treatment. The protocol:
DOHH2 xenograft study at Charles River's facility: […] On Day 1 of the study, animals were given a rehydration solution ad libitum in an effort to reduce dehydration during the dosing phase of the study. […] The dose volume was 10 mL/kg.

The mark [9] stands for this setting: purified T cells from healthy donors, T cells viability (#1).
[10] abbreviates: purified T cells from healthy donors, T cells viability (#2).
Setting [11] is: purified T cells from healthy donors, T cells viability (#3).

Where a name gives a salt, the structure may show the parent alone. Residues, ends and D or L forms follow the SMILES beside them. *: point of attachment. Cbz = O=C(OCc1ccccc1)*

As to `Cc1nn(C)c(C)c1CCOc1c(-c2ccc3c(c2)c(CN(C)C)nn3C)ccc(F)c1F` [IMP-1088, reference compound], in the data set with T cells, the TNFa secretion result was “increasing the secretion”; the “level of IL-5, IL-10 and IL-13” value is on record as “significantly reduced”; the “level of IL-6, IL-8 and IFN-gamma” value is recorded as “significantly reduced”. Also, in data set [1] (setting [9]), the viability at 4 days, 20 nM came to 9%; the viability at 4 days, 100 nM came to 10%; the viability at 4 days, 500 nM came out at 6%. In data set [1] (setting [10]), this compound displayed a viability at 4 days, 20 nM of 61%; a viability at 4 days, 100 nM of 59%; a viability at 4 days, 500 nM of 59%. Also, in [1] (setting [11]), the viability at 4 days, 20 nM was 74%; the viability at 4 days, 100 nM came out at 70%; the viability at 4 days, 500 nM was determined as 70%.

As for `CC(C)C[C@@H](C=O)NC(=O)[C@H](CC(C)C)NC(=O)[C@H](CC(C)C)NC(=O)OCc1ccccc1` [MG132] (Cbz-Leu-Leu-Leu-aldehyde), the “levels of the 4 SFK proteins (Src, Lyn, Hck, Lck)” value in data set [2] is “partial or complete restoration”.

Consider `Cc1nn(C)c(C)c1N[S+](=O)([O-])c1c(Cl)cc(-c2ccnc(N3CCNCC3)c2)cc1Cl` [PCLX-002], for which, in the data set with T cells, the “level of IL-5, IL-10 and IL-13” value is on record as “significantly reduced”; the “level of IL-6, IL-8 and IFN-gamma” value is “significantly reduced”. Moreover, the Clearance in data set [3] is 5 mL/min/kg. In data set [1] (T cells viability (#1)), this compound returned a viability at 4 days, 20 nM of 9%; a viability at 4 days, 100 nM of 9%; a viability at 4 days, 500 nM of 9%. In data set [1] (T cells viability (#2)), this compound yielded a viability at 4 days, 20 nM of 65%; a viability at 4 days, 100 nM of 65%; a viability at 4 days, 500 nM of 65%. In data set [1] (T cells viability (#3)), this compound gave a viability at 4 days, 20 nM of 75%; a viability at 4 days, 100 nM of 75%; a viability at 4 days, 500 nM of 69%.

With `Cc1nc(Nc2ncc(C(=O)Nc3c(C)cccc3Cl)s2)cc(N2CCN(CCO)CC2)n1` [dasatinib], in [4], the “HGAL and Arf1 protein levels” value was “no effect”.

For the compound `COc1cccc2c1C(=O)c1c(O)c3c(c(O)c1C2=O)C[C@@](O)(C(=O)CO)C[C@@H]3O[C@H]1C[C@H](N)[C@H](O)[C@H](C)O1` [doxorubicin, Doxorubicin hydrochloride, reference compound], in [5], the “toxicity of doxorubicin treatment” value is “severe drug toxicity and death in the majority of tumor bearing mice”. In data set [6], the MPV amounted to 6.2 ± 0.15 fL. For the same compound, in data set [7], the “Absolute Lymphocyte cells” value is reported as 2.28 ± 0.4, the “Absolute Monocyte cells” value amounted to 0.7 ± 0.19, the Hemoglobin was found to be 13.6 ± 0.21 g/dL and the MCH is recorded as 13.6 ± 0.12. The ROW % in data set [7] stood at 17.03 ± 0.15%. For the same compound, in [8], the reduced body weight result is “up to 8%”. Also, the “effect on BL2 tumor growth” value in the data set with BL2 xenografts was “no effect”. For the same compound, in the data set on DOHH2 tumors, the TGI is 57%.

Consider `C=CC(=O)N1CCC[C@@H](n2nc(-c3ccc(Oc4ccccc4)cc3)c3c(N)ncnc32)C1` [ibrutinib], for which, in [4], the “HGAL and Arf1 protein levels” value is “no effect”.

By viability is commonly meant a per cent measure of how many cells are alive, often set against a control. A lower viability goes with more harm to the cells. By TGI is commonly meant how far tumour growth fell short of that in controls. A lower TGI goes with a weaker effect on the tumour.

These data come from patent US20240350481A1, “USE OF N-MYRISTOYL TRANSFERASE (NMT) INHIBITORS IN THE TREATMENT OF CANCER, AUTOIMMUNE DISORDERS, AND INFLAMMATORY DISORDERS” (PACYLEX PHARMACEUTICALS INC., priority 2020, published 2024).
